For this assay, the system named is L1210 leukemia ip in BDF1 mice, survival T/C. Nature of the assay: NCI In Vivo Anticancer Drug Screen. Data for tumor model L1210 Leukemia (intraperitoneal) in B6D2F1 (BDF1) mice. The settings on record: endpoint: mean survival time, higher = longer survival. In a few lines:
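Antitumor effect is assessed in tumor-bearing animals. Survival in the compound arm is compared with a vehicle-dosed control arm and expressed as their quotient.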

Where [1] appears, read: dose: 100.0 mg/kg/injection, schedule: Q01DX009 (ip), vehicle: Klucel (hydroxypropylcellulose) (HPC).
[2] abbreviates: dose: 100.0 mg/kg/injection, schedule: Q04DX003 (ip), vehicle: Klucel (hydroxypropylcellulose) (HPC).
Setting [3] is: dose: 200.0 mg/kg/injection, schedule: Q01DX009 (ip), vehicle: Klucel (hydroxypropylcellulose) (HPC).
Where [4] appears, read: dose: 200.0 mg/kg/injection, schedule: Q04DX003 (ip), vehicle: Klucel (hydroxypropylcellulose) (HPC).
Where [5] appears, read: dose: 400.0 mg/kg/injection, schedule: Q01DX009 (ip), vehicle: Klucel (hydroxypropylcellulose) (HPC).
Setting [6] is: dose: 400.0 mg/kg/injection, schedule: Q04DX003 (ip), vehicle: Klucel (hydroxypropylcellulose) (HPC).
[7] abbreviates: dose: 100.0 mg/kg/injection, schedule: Q01DX009 (ip), vehicle: saline with Tween-80.
Setting [8] is: dose: 100.0 mg/kg/injection, schedule: Q04DX003 (ip), vehicle: saline with Tween-80.
[9] abbreviates: dose: 200.0 mg/kg/injection, schedule: Q01DX009 (ip), vehicle: saline with Tween-80.
The mark [10] stands for this setting: dose: 200.0 mg/kg/injection, schedule: Q04DX003 (ip), vehicle: saline with Tween-80.
The mark [11] stands for this setting: dose: 400.0 mg/kg/injection, schedule: Q01DX009 (ip), vehicle: saline with Tween-80.
Setting [12] is: dose: 400.0 mg/kg/injection, schedule: Q04DX003 (ip), vehicle: saline with Tween-80.
The mark [13] stands for this setting: dose: 100.0 mg/kg/injection, schedule: Q01DX001 (ip), vehicle: saline.
Setting [14] is: dose: 200.0 mg/kg/injection, schedule: Q01DX001 (ip), vehicle: saline.
The mark [15] stands for this setting: dose: 400.0 mg/kg/injection, schedule: Q01DX001 (ip), vehicle: saline.
Setting [16] is: dose: 100.0 mg/kg/injection, schedule: Q04DX003 (ip), vehicle: saline.
Setting [17] is: dose: 200.0 mg/kg/injection, schedule: Q04DX003 (ip), vehicle: saline.
The mark [18] stands for this setting: dose: 400.0 mg/kg/injection, schedule: Q04DX003 (ip), vehicle: saline.
Setting [19] is: dose: 100.0 mg/kg/injection, schedule: Q04DX002 (ip), vehicle: saline with Tween-80.
Where [20] appears, read: dose: 400.0 mg/kg/injection, schedule: Q04DX002 (ip), vehicle: saline with Tween-80.

SMILES strings stand for the structures. Toxic doses and inconclusive results are not listed.

Turning to `CC1=CC(=O)NP(=O)(OC2CCCCC2)N1` (configuration not stated), the T/C (dose: 100.0 mg/kg/injection, schedule: Q01DX005 (ip), vehicle: sodium bicarbonate) is 91 % of control.

On to `CCCCCCC(=O)/C=C/C=C/c1ccccc1`, for which the T/C by setting is: under setting [1], 97 % of control; under setting [2], 98 % of control; under setting [3], 91 % of control; under setting [4], 98 % of control; under setting [5], 100 % of control; under setting [6], 94 % of control.

Consider `CC(=O)CCc1c(C)nc(Nc2nc3cc(C)c(C)cc3[nH]2)nc1C`, for which the T/C under setting [2] was 93 % of control, the T/C under setting [4] was 96 % of control and the T/C under setting [6] was 93 % of control.

For `CCOC(=O)CSC`, the T/C was 99 % of control under setting [7]; 101 % of control under setting [8]; 94 % of control under setting [9]; 106 % of control under setting [10]; 100 % of control under setting [11]; 98 % of control under setting [12].

In the case of `O=c1ccsc(=S)[nH]1`, the T/C runs as follows: (dose: 100.0 mg/kg/injection, schedule: Q01DX001 (ip), vehicle: saline with Tween-80) 101 % of control; (dose: 200.0 mg/kg/injection, schedule: Q01DX001 (ip), vehicle: saline with Tween-80) 104 % of control; (dose: 400.0 mg/kg/injection, schedule: Q01DX001 (ip), vehicle: saline with Tween-80) 97 % of control.

For the compound `CN(C)S(=O)(=O)c1ccc(NC(=O)OC(c2ccccc2)c2ccccc2)cc1`, the T/C runs as follows: under setting [13], 91 % of control; under setting [14], 102 % of control; under setting [15], 91 % of control.

Turning to `Nc1ccc(C2=NCCO2)cc1`, the T/C reads like this: (dose: 100.0 mg/kg/injection, schedule: Q01DX001 (ip), vehicle: Klucel (hydroxypropylcellulose) (HPC)) 92 % of control; (dose: 200.0 mg/kg/injection, schedule: Q01DX001 (ip), vehicle: Klucel (hydroxypropylcellulose) (HPC)) 103 % of control; (dose: 400.0 mg/kg/injection, schedule: Q01DX001 (ip), vehicle: Klucel (hydroxypropylcellulose) (HPC)) 96 % of control.

As for `COn1c(CC(=O)C(=O)O)cccc1=O`, the T/C under setting [16] is 102 % of control, the T/C under setting [17] was 97 % of control and the T/C under setting [18] was 94 % of control.

In the case of `OC(CNc1ccccc1)CN1CCOCC1` (configuration not stated), the T/C reads like this: (dose: 100.0 mg/kg/injection, schedule: Q01DX001 (ip), vehicle: other) 101 % of control; under setting [16], 100 % of control; (dose: 200.0 mg/kg/injection, schedule: Q01DX001 (ip), vehicle: other) 96 % of control; under setting [17], 94 % of control; (dose: 400.0 mg/kg/injection, schedule: Q01DX001 (ip), vehicle: other) 105 % of control; under setting [18], 94 % of control.

Turning to `COc1cccc(NC(=O)Nc2ccccc2Cl)c1`, the T/C was 93 % of control (dose: 100.0 mg/kg/injection, schedule: Q01DX009 (ip), vehicle: gum acacia); 92 % of control (dose: 100.0 mg/kg/injection, schedule: Q04DX003 (ip), vehicle: gum acacia); 98 % of control (dose: 200.0 mg/kg/injection, schedule: Q01DX009 (ip), vehicle: gum acacia); 90 % of control (dose: 200.0 mg/kg/injection, schedule: Q04DX003 (ip), vehicle: gum acacia); 96 % of control (dose: 400.0 mg/kg/injection, schedule: Q01DX009 (ip), vehicle: gum acacia); 94 % of control (dose: 400.0 mg/kg/injection, schedule: Q04DX003 (ip), vehicle: gum acacia).

Consider `O=C(Nc1ccc(F)cc1)C(Br)C(Br)c1ccccc1` (configuration not stated), for which the T/C is 88 % of control under setting [1], 102 % of control under setting [3] and 91 % of control under setting [5].

For the compound `O=C(Cl)C(c1ccccc1)C1(C(Cl)(Cl)Cl)CCCCC1` (configuration not stated), the T/C is, setting by setting: (dose: 55.0 mg/kg/injection, schedule: Q01DX Z (ip), vehicle: methylcellulose (MC)) 110 % of control; (dose: 83.0 mg/kg/injection, schedule: Q01DX Z (ip), vehicle: methylcellulose (MC)) 104 % of control; (dose: 125.0 mg/kg/injection, schedule: Q01DX Z (ip), vehicle: methylcellulose (MC)) 98 % of control.

On to `CC(C)CCCC(C)C1CCC2C3CC=C4CC(=O)CCC4(C)C3CCC12C` (configuration not stated), for which the T/C was 98 % of control under setting [19] and 88 % of control under setting [20].

For `CCOC(=O)C1=NN(c2ccccc2)C(=O)C1N=Nc1c(Br)cc(S(N)(=O)=O)cc1Br` (configuration not stated), the T/C reads like this: under setting [13], 96 % of control; under setting [14], 101 % of control; under setting [15], 98 % of control.

Turning to `N=C(N)Sc1cnc2ccccc2n1`, the T/C reads like this: under setting [13], 95 % of control; under setting [14], 97 % of control; under setting [15], 105 % of control.

As for `CC1COCCCCCC(=O)C1` (configuration not stated), the T/C was 91 % of control under setting [13], 107 % of control under setting [14] and 107 % of control under setting [15].

`Cc1ccc(S(=O)(=O)CN2CCC(=O)c3ccccc32)cc1`: the T/C was 104 % of control (dose: 75.0 mg/kg/injection, schedule: Q01DX001 (ip), vehicle: saline); 101 % of control (dose: 150.0 mg/kg/injection, schedule: Q01DX001 (ip), vehicle: saline); 93 % of control (dose: 300.0 mg/kg/injection, schedule: Q01DX001 (ip), vehicle: saline).

With `CC(=O)NC1CCC(/C=C(\C#N)C2CCC([N+](=O)[O-])CC2)CC1` (configuration not stated), the T/C is 97 % of control (dose: 25.0 mg/kg/injection, schedule: Q04DX002 (ip), vehicle: saline with Tween-80); 94 % of control (dose: 50.0 mg/kg/injection, schedule: Q04DX002 (ip), vehicle: saline with Tween-80); 94 % of control under setting [19]; 86 % of control (dose: 200.0 mg/kg/injection, schedule: Q04DX002 (ip), vehicle: saline with Tween-80); 104 % of control under setting [20].

As for `N#C/C(=N\N=Nc1ccccc1)c1ccccc1`, the T/C (dose: 1.5 mg/kg/injection, schedule: Q01DX009 (ip), vehicle: DMSO) was 90 % of control; the T/C (dose: 6.0 mg/kg/injection, schedule: Q01DX009 (ip), vehicle: DMSO) is 92 % of control; the T/C (dose: 12.5 mg/kg/injection, schedule: Q01DX009 (ip), vehicle: DMSO) is 98 % of control; the T/C (dose: 12.5 mg/kg/injection, schedule: Q04DX003 (ip), vehicle: DMSO) is 98 % of control; the T/C (dose: 25.0 mg/kg/injection, schedule: Q04DX003 (ip), vehicle: DMSO) was 98 % of control; the T/C (dose: 50.0 mg/kg/injection, schedule: Q04DX003 (ip), vehicle: DMSO) is 102 % of control.

`O=C(/C=C\c1ccc(/C=C/C(=O)Nc2cccc(C3=NCCCN3)c2)cc1)Nc1cccc(C2=NCCCN2)c1`: the T/C (dose: 0.62 mg/kg/injection, schedule: Q01DX Z (ip), vehicle: carboxymethylcellulose (CMC)) was 117 % of control; the T/C (dose: 5.0 mg/kg/injection, schedule: Q01DX Z (ip), vehicle: carboxymethylcellulose (CMC)) was 225 % of control; the T/C (dose: 12.5 mg/kg/injection, schedule: Q01DX Z (oral), vehicle: carboxymethylcellulose (CMC)) was 103 % of control; the T/C (dose: 25.0 mg/kg/injection, schedule: Q01DX Z (oral), vehicle: carboxymethylcellulose (CMC)) is 103 % of control; the T/C (dose: 50.0 mg/kg/injection, schedule: Q01DX Z (oral), vehicle: carboxymethylcellulose (CMC)) was 102 % of control; the T/C (dose: 100.0 mg/kg/injection, schedule: Q01DX Z (oral), vehicle: carboxymethylcellulose (CMC)) was 97 % of control.

For `N#Cc1ccc(Cc2ccc(C#N)cc2)cc1`, the T/C under setting [7] is 95 % of control; the T/C under setting [8] is 95 % of control; the T/C under setting [9] was 97 % of control; the T/C under setting [10] was 101 % of control; the T/C under setting [11] was 100 % of control; the T/C under setting [12] is 106 % of control.

As to `Cc1c(C)c(O)c(Br)c(C)c1O` (tested in a mixture with another compound), the T/C under setting [8] was 89 % of control.

For the compound `O=C(CC(=O)c1ccco1)c1ccccc1`, the T/C reads like this: under setting [13], 102 % of control; under setting [14], 100 % of control; under setting [15], 96 % of control.

Values taken from PubChem BioAssay AID248 (DTP/NCI, 2004).
